We go through ten molecules from US5385918A, “Aminomethylene-peptides as immunosuppressants” (Miles Inc., priority 1993, dated 1995).

The target of one assay is FKBP (Homo sapiens, UniProt P62942). Put plainly: PPIase Inhibition Assay. The note with it: inhibition of PPIase activity of FKBP, substrate Succinyl-Ala-Phe-Pro-Phe-para-nitroanilide. The assay is classed as biochemical. The protocol: This assay follows in principle the procedure described in Kofron et al., 1991, Biochemistry 30:6127. The three main reagents used are PPIase, a substrate for PPIase, and a selected inhibitor compound of the present invention. The basic principle behind this assay is the conversion of the cis isomer of the substrate to the trans form, which conversion is catalyzed by PPIase. Essentially, inhibition of this PPIase activity is measured for the selected compounds. A peptide chymotrypsin substrate containing a proline in the P2 position is only cleaved by chymotrypsin when the Phe-Pro bond is in the trans isomeric configuration. In the presence of excess chymotrypsin, all of the trans peptide isomers are cleaved within approximately five seconds, leaving only cis forms.
The cis peptide will spontaneously convert to the trans isomer at a slow rate. The cis to trans conversion is catalyzed by isomerases at a much faster rate than this spontaneous conversion. Proteins with PPIase activity are examples of such isomerases. After isomerization, the peptide is cleaved by chymotrypsin releasing p-nitroaniline which can be monitored at 390 nm. The rate of release is then calculated using a first order rate plus offset equation utilizing the ENZFITTER program (Leatherbarrow, BIOSOFT, Cambridge, United Kingdom).
In a plastic cuvette are added 950 ul of ice cold assay buffer (25 mM HEPES, pH 7.8, 100 mM NaCl), 10 uL of FKBP (2.5 uM in 10 mM Tris-Cl pH 7.5, 100 mM NaCl, 1 mM dithiothreitol), 25 ul of chymotrypsin (50 mg/ml in 1 mM HCl) and 10 ul of the test compound at various concentrations in dimethyl sulphoxide. The reaction is initiated by addition of 5 ul of substrate (Succinyl-Ala-Phe-Pro-Phe-para-nitroanilide, 5 mg/ml in 235 mM LiCl in trifluoroethanol).
The absorbance at 390 nm versus time is monitored for 90 sec using a Beckman DU70 spectrophotometer. The absorbance versus time data files are transferred to an IBM XT computer and the rate constants determined using the commercial Enzfitter program. For each set of data, the uncatalyzed rate of conversion is measured and the uninhibited enzymatic rate determined. The data are expressed as % Inhibition and are calculated as follows: [formula] where kobs is the rate in the presence of a selected test compound, kuncat is the rate in the absence of enzyme, and kuninh is the rate in the presence of enzyme and absence of inhibitor. Data are plotted as percent inhibition versus concentration of inhibitor. The values of the concentration of inhibitor required for 50% inhibition of enzyme activity (IC50) were determined by nonlinear least squares regression analysis.

For a further assay, the system named is human T-cells. Briefly: Suppression of Human T-Cell Proliferation Assay (PHA-stimulated, [3H]-thymidine incorporation). The assay is classed as cell-based. The note with it: for IC50: inhibition of [3H]-thymidine incorporation of PHA-stimulated purified human T-cells, 72 hours. From the text:
Inhibition of mitogen-induced T-cell proliferation can be used to profile immunosuppressive activity of test compounds. In the description of the assay which follows, mitogen-induced T-cell proliferation was used to test the inhibitory potencies of select compounds of the present invention.
In an assay similar to that described by Bradley in Mishell et al. (Eds.), 1980, Selected Methods in Cellular Immunology, pp 156-161, W. H. Freeman & Co., San Fransisco, Calif., T-cells were stimulated by incubation with phytohemagglutinin (PHA) which binds to cell surface molecules, including the T-cell receptor. This stimulation results in proliferation which can be measured by incorporation of [^3 H]-thymidine into cellular DNA.
Fresh LeukoPaks were obtained from the New York Blood Center, New York, N.Y. The cells, including erythrocytes and leukocytes, were diluted with Hank's Balanced Salt Solution (HBSS) (GIBCO, Grand Island, N.Y.) and layered over Lymphoprep (Nycomed Pharma AS, Oslo, Norway) in sterile 50 ml conical centrifuge tubes. Lymphocytes were isolated at the Hank's/Nycomed interface after centrifugation at 2000×g, 4° C. for 15 min. The lymphocytes were washed with Minimal Essential Medium (GIBCO) containing 2% fetal bovine serum (FBS) (Sigma Chemical Co., St. Louis, Mo.), 1% HEPES buffer (GIBCO) and 1% Penicillin-Stretomycin solution (GIBCO).
T-cells were further purified essentially by sheep erythrocyte (SRBC) rosetting as described by Morimoto et al., 1983, J. Immunol. 130:157. The isolated lymphocytes were adjusted to 2×10^7 cells/ml and 5 ml aliquots of the cell suspension were incubated for 10 minutes at room temperature with 5 ml of a 5% SRBC (Cappel, Organon Technika Corp., West Chester, Pa.) suspension. The cells were gently pelleted by centrifugation at 300 rpm for 10 minutes, followed by a 1 hour incubation at room temperature to allow rosette formation. The cells were gently resuspended,layered over Lymphoprep and centrifuged for 30 minutes at 500×g. The pellet, containing rosetted T-cells and SRBC was treated with ice cold buffered ammonium chloride (GIBCO) to lyse the erythrocytes. T-cells were washed twice with HBSS.
Purified T-cells were resuspended at 2×10^6 cells/ml in complete culture medium composed of RPMI-1640 (Whittaker Bioproducts, Walkerville, Md.) with 10% FBS (Sigma), 2 mM L-glutamine (GIBCO), 1% Penicillin-Streptomycin (GIBCO) and 15 mM HEPES (GIBCO). In 96-well plates (Becton Dickinson, Lincoln Park, N.J.), 0.1 ml aliquots of T-cell suspension were mixed with 0.05 ml of 40 μg/ml PHA-M (Sigma). The compounds of this invention were dissolved in dimethylsulfoxide at 10 mM and various dilutions in complete medium were added in duplicate wells (0.05 ml/well). The plates were incubated at 37° C. in a humidified atmosphere of 5% carbon dioxide and 95% air for 72 hours.
Proliferation was assessed by measurement of [^3 H]-thymidine incorporation. During the last 6 hours of incubation, the cells were pulse labelled with 1 μCi/well of [^3 H]-thymidine (New England Nuclear, Boston, Mass.). The cells were harvested onto glass fiber paper using a plate harvester and the radioactivity incorporated into cellular DNA corresponding to individual wells was measured by standard liquid scintillation counting methods. The mean counts per minute (CPM) of replicate wells was calculated and linear regression analysis of mean CPM versus compound concentration was used to determine the concentration of compound which would inhibit [^3 H]-thymidine incorporation of T-cells by 50% (IC50).
For orientation: Uptake of a labelled nucleoside into DNA is a usual measure of proliferation.

The term IC50 denotes the concentration at which inhibition is half-maximal.

A value given as a limit tells only on which side of the number the result lay.

FKBP, sequence (P62942 whole entry): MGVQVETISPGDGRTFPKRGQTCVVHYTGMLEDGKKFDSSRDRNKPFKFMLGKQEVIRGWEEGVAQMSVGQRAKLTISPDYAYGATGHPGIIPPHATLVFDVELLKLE

Take `CC[C@H](C)[C@H](NC(=O)[C@@H]1CCCN1C[C@H](CC(C)C)NC(=O)OC(C)(C)C)C(=O)NCc1ccccc1` [Example 2, 1-[1-[2-(S)-[[(1,1-Dimethylethoxy)carbonyl]amino]-4-methylpentyl]-L-proline]-L-isoleucine Benzylamide]: the half-maximal inhibitory concentration (IC50) stood at 0.57 µM against FKBP and 7 µM in the assay on human T-cells.

As to `CC[C@H](C)[C@H](NC(=O)[C@@H]1CCCCN1C[C@@H](NC(=O)OC(C)(C)C)[C@@H](C)CC)C(=O)NCc1ccccc1` [Example 3, 1-[1-[2-(S)-[[(1,1-Dimethylethoxy)carbonyl]amino]-3-(S)-methylpentyl]-L-homoproline]-L-isoleucine Benzylamide], the concentration for half-maximal inhibition (IC50) at FKBP was 5 µM; in the assay on human T-cells, 0.7 µM.

For `CC[C@H](C)[C@H](NC(=O)[C@@H]1CCCN1C[C@@H](NC(=O)OC(C)(C)C)[C@@H](C)CC)C(=O)NCc1ccccc1` [Example 6], the IC50 against FKBP was 0.39 µM; in the assay with human T-cells, 6 µM.

For `CCC(C)[C@@H](CN1CCC[C@H]1C(=O)N[C@H](C(=O)NCc1ccccc1)[C@@H](C)CC)NC(=O)[C@H](CC1CCCCC1)NC(=O)OC(C)(C)C` (stereo partly drawn) [Example 7, 1-[1-[2-(S)-[[2-(S)-[[(1,1-Dimethylethoxy)carbonyl]amino]-1-oxo-3-cyclohexylpropyl]amino]-3-methylpentyl]-L-proline]-L-isoleucine Benzylamide], the values for the IC50 against FKBP and in the assay with human T-cells were 0.13 µM and 3 µM, respectively.

Turning to `CCC(C)[C@@H](CN1CCC[C@H]1C(=O)N[C@H](C(=O)NCc1ccccc1)[C@@H](C)CC)NC(=O)[C@@H](N)CC1CCCCC1` (stereo partly shown) [Example 8], the figures for the IC50 on FKBP and in the assay on human T-cells were 0.16 µM and 5 µM, respectively.

On to `CC[C@H](C)[C@H](NC(=O)[C@@H]1CCCN1C[C@H](CC(C)C)NC(=O)[C@H](CC(N)=O)NC(=O)[C@H](Cc1ccccc1)NC(=O)OC(C)(C)C)C(=O)OCc1ccccc1` [Example 14, 1-[1-[2-(S)-[[1-[1-[(1,1-Dimethylethoxy)carbonyl]-L-phenylalanyl]-L-asparaginyl]amino]-4-methylpentyl]-L-proline]-L-isoleucine Phenylmethyl Ester], for which the 50% inhibitory concentration (IC50) against FKBP was below 50 µM. In the assay with human T-cells, the “inhibition of mitogen induced T-cell proliferation” value is “inhibited mitogen induced T-cell proliferation” and the IC50 is below 6 µM.

`CC[C@H](C)[C@H](NC(=O)[C@@H]1CCCN1C[C@H](CC1CCCCC1)NC(=O)OC(C)(C)C)C(=O)NCc1ccccc1` [Example 16, 1-[1-[2-(S)-[[(1,1-dimethylethoxy)carbonyl]amino]-3-cyclohexylpropyl]-L-proline]-L-isoleucine Benzylamide]: the IC50 is above 5 µM against FKBP and 6 µM in the assay with human T-cells.

With `CC[C@H](C)[C@H](NC(=O)[C@@H]1CCCN1C[C@@H](NC(=O)OC(C)(C)C)C(C)C)C(=O)NCc1ccccc1` [Example 17, 1-[1-[2-(S)-[[(1,1-dimethylethoxy)carbonyl]amino]-3-methylbutyl]-L-proline] -L-isoleucine Benzylamide], at FKBP, the concentration for half-maximal inhibition (IC50) turned out to be 0.47 µM. In addition, in the assay with human T-cells, the “inhibition of mitogen induced T-cell proliferation” value is “inhibited mitogen induced T-cell proliferation” and the IC50 stood at 14 µM.

In the case of `CC[C@H](C)[C@H](NC(=O)[C@@H]1CCCCN1C[C@H](CC(C)C)NC(=O)OC(C)(C)C)C(=O)NCc1ccccc1` [Example 18, 1-[1-[2-(S)-[[(1,1-Dimethylethoxy)carbonyl]amino]-4-methylpentyl]-L-homoproline]-L-isoleucine Benzylamide], the half-inhibitory concentration (IC50) amounted to 1.3 µM against FKBP and 4 µM with human T-cells.

With `CC[C@H](C)[C@@H](CN1CCCC[C@H]1C(=O)N[C@H](C(=O)NCc1ccccc1)[C@@H](C)OCc1ccccc1)NC(=O)OC(C)(C)C` [Example 19, 1-[1-[2-(S)-[[(1,1-Dimethylethoxy)carbonyl]amino]-3-(S)-methylpentyl]-L-homoproline]-L-threonene(O-Benzyl Ether)Benzylamide], the IC50 came to 5 µM at FKBP and 17 µM with human T-cells.
